{
  "source": "paper PMC3076215",
  "about": "(Biochemistry, 2011)",
  "target": "T1, Carbon monoxide dehydrogenase (CODH) (Afipia carboxidovorans, UniProt P19920)",
  "T1 sequence (P19920 1-288)": "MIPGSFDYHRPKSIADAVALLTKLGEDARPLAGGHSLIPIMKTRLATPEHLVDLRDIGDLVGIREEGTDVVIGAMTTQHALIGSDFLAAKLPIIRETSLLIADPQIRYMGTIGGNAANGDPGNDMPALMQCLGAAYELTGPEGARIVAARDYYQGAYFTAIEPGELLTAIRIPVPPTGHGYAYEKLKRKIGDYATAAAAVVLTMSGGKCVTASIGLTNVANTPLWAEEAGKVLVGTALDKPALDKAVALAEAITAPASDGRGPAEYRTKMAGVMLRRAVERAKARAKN",
  "T1 sequence (P19919 1-809 partner)": "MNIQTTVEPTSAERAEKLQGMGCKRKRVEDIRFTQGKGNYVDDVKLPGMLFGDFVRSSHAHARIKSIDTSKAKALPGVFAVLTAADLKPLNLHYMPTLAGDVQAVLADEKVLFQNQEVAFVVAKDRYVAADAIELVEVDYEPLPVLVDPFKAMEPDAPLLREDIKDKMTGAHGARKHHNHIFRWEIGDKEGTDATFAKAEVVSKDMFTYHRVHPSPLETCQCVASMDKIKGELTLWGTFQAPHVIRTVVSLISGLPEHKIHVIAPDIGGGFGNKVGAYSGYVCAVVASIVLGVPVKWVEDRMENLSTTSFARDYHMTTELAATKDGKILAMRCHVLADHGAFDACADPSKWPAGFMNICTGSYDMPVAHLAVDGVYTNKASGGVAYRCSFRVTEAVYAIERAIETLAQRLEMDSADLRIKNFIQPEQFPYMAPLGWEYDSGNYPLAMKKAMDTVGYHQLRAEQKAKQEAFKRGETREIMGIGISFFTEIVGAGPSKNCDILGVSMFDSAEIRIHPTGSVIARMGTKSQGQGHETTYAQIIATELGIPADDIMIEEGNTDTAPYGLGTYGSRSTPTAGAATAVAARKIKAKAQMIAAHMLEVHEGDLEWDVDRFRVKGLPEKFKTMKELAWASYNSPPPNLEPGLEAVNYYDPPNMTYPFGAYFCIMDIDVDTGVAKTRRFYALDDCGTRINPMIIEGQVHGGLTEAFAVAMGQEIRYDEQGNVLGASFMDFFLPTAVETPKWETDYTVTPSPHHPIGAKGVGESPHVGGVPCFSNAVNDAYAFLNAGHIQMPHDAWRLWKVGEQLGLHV",
  "T1 sequence (P19921 1-166 partner)": "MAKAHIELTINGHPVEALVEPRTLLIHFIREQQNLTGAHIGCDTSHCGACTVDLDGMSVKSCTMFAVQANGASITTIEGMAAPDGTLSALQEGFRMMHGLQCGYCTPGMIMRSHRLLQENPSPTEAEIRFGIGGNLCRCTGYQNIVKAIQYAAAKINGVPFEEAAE",
  "assay": "UV-vis difference titration at […] nm",
  "format": "binding",
  "data": [
    {"smiles": "O=C1C=CC(=O)C=C1", "note": "[1,4-benzoquinone]", "values": [
      {"measurement": "Kd", "value": 100, "unit": "µM"}
    ]}
  ]
}
